Experimental data published in patent publication US20240059693A1, “FUSED BICYCLIC PYRAZOLE DERIVATIVES AND METHODS OF USE THEREOF FOR THE TREATMENT OF HERPESVIRUSES” (Merck Sharp & Dohme LLC, priority 2020, published 2024).
Where two headings read alike, the source gives them in different places.

Tests used:
[1] = target: T1, Human cytomegalovirus DNA polymerase (Human cytomegalovirus, UniProt P08546); assay: HCMV polymerase assay (AlphaLISA); format: biochemical; settings: HCMV DNA polymerase 0.2 nM, 60 minutes at 37° C.; read-out: CMV (IC50)
T1 construct: made in house; host or cells: SF21 insect cells (baculovirus vector)
T1 sequence (P08546 whole entry): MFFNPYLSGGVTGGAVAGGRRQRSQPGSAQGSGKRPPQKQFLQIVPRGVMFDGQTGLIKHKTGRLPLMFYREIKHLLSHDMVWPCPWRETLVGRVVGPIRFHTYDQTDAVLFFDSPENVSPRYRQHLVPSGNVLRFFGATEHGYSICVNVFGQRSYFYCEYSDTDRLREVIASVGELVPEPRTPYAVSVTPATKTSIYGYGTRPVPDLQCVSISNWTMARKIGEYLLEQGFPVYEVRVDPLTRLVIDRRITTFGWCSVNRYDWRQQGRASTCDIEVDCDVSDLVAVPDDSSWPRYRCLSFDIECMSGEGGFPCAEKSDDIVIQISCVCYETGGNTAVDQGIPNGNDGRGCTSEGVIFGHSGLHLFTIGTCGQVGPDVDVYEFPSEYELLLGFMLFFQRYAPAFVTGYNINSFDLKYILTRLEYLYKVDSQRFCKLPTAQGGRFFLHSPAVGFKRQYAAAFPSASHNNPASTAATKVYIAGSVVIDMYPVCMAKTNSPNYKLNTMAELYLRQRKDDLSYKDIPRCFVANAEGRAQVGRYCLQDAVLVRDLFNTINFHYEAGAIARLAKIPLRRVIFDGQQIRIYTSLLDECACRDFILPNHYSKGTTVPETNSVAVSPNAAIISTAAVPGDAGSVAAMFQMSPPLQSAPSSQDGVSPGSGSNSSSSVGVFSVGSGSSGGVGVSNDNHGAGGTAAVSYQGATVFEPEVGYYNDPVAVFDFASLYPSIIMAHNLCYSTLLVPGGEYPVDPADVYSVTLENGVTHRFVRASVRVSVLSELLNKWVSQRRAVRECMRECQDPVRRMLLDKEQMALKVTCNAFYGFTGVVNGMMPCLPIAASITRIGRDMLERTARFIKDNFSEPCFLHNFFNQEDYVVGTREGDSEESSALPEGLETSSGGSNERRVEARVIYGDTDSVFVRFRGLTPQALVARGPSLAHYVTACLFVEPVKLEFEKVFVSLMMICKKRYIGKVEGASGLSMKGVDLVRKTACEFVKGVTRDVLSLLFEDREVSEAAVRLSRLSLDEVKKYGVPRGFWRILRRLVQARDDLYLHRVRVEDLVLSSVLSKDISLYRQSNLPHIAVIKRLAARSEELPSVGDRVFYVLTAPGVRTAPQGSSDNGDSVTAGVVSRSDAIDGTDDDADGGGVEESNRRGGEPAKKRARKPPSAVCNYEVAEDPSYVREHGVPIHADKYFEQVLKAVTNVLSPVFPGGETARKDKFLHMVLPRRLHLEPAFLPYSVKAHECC
Method: Human cytomegalovirus and varicella zoster virus DNA polymerases were expressed via baculovirus vector in SF21 cells and purified. Heterodimeric nucleic acid substrate used in the herpesvirus polymerase reactions was generated by annealing a 59-mer template to a 17-mer digoxigenin-labeled primer. Polymerase (HCMV final concentration of 0.2 nM; VZV final concentration of 0.4 nM) was combined with an inhibitor compound or DMSO in assay buffer (10 mM HEPES, pH 7.5, 25 mM KCl, 25 mM NaCl, 5 mM MgCl2, 5% glycerol, 0.67 mg/ml bovine serum albuminutes, and 1 mM tris(2-carboxyethyl)phosphine), and this mixture was pre-incubated for 30 minutes at room temperature in 384-well microtiter plates. The polymerization reaction was initiated by the addition of template/primer substrate (final concentration: 1.6 nM), and dNTPs (final concentration: 24 nM dCTP, 24 nMdGTP, 16 nM dATP, 16 nM dTTP, and 0.8 nM biotin-dUTP). After 60 minutes incubation at 37° C., reactions were terminated with quench buffer (25 mM HEPES pH 7.5, 100 mM NaCl, 0.25% Tween-20, 12 mM EDTA, and 1 mg/ml bovine serum albumin). Incorporation of biotinylated UTP was detected with 2.5-ug/ml anti-DIG AlphaLISA acceptor beads and 5-10 ug/ml streptavidin AlphaLISA donor beads (Perkin Elmer). Compound effects were normalized to the window defined by the controls (DMSO only and pre-quenched wells) and were fit using a 4-parameter algorithm to report an IC50.

HCMV Strain AD169 = assay: Viral qPCR assay, HCMV in MRC-5 cells; format: cell-based, Human cytomegalovirus; settings: read-out: CMV MRC5 Cell (EC50)
Method: (§1) MRCS cells, Vero cells, and MeWo cells were obtained from ATCC and were maintained at 37° C./5% CO2/90% relative humidity in Minimal Essential Medium with 10% fetal bovine serum, […] L-glutamine, 100 units/ml penicillin and 100 ug/ml streptomycin. Assay plates were prepared by dispensing compounds dissolved in DMSO into wells of 384 well collagen-coated plates using an ECHO acoustic dispenser. Each compound was tested in a 10-point, serial 3-fold dilution. Controls included uninfected cells and infected cells treated only with DMSO. Assays were initiated by mixing selected cells, in suspension, with virus, and dispensing 50 μl/well infected cells to pre-plated compounds. Plates were incubated at 37° C./5% CO2/90% relative humidity for ˜72 hrs to permit genomic replication, and infected cells were lysed by the addition of an equal volume of lysis buffer (10 mM Tris-HCl, pH8, 50 mM KCl, 2 mM MgCl2, 0.45% NP-40, 0.45% Tween-20, and 100 μg/ml proteinase K). An aliquot of the lysate was transferred to a 384-well PCR plate and incubated at 56° C. for 1 hour and then at 95° C. for 10 min. Levels of a viral gene and of the cellular control, PPIA (Thermo Fisher Assay ID=Hs04194521_s1), were measured in separate 10 μL qPCR assays using TaqMan® Gene Expression Master Mix (Applied Biosystems), and an 7900HT Fast Real-Time PCR System with 384-Well Block Module. 7-point, serial 10-fold dilutions of a plasmid standard were run on each plate to generate a standard curve, and genome copies numbers were calculated by plotting experimental Ct onto linear regression of the standard curve. Viral genome copy numbers were normalized by cellular control copy number, and compound effects were normalized to the window defined by the controls. Calculated % effects were fit using a 4-parameter algorithm, and EC50 was reported.
as §1, with “gene” for “gene and of the cellular control, PPIA (Thermo Fisher Assay ID=Hs04194521_s1),”, “in” for “in separate”, “Compound effects on viral” for “Viral”, “number” for “numbers were normalized by cellular control copy number, and compound effects”
HCMV: Strain AD169 Street was assayed in MRC-5 cells and was used at 0.05-0.1 pfu/cell. The assays were performed in either growth media or in the same media with 50% fetal bovine serum. Primer-probe set was Thermo Fisher Assay ID=AIFATFK.

VZV = assay: Viral qPCR assay, VZV in MRC5 cells; format: cell-based, varicella zoster virus; settings: read-out: VZV MRC5 Cell (IC50)
Method: as §1
as §1, with “gene” for “gene and of the cellular control, PPIA (Thermo Fisher Assay ID=Hs04194521_s1),”, “in” for “in separate”, “Compound effects on viral” for “Viral”, “number” for “numbers were normalized by cellular control copy number, and compound effects”
(§2) VZV: Strain Street was maintained as an infected cell stock in MRC-5 cells. It was assayed in MeWo or MRCS cells and was used at 0.04-0.1 pfu/cell. The assays were performed in growth medium. Primer-probe set was Thermo Fisher Assay ID=AIPAEXQ. HSV-1: Strain F Street was assayed in Vero or MRCS cells and was used at 0.0005-0.004 pfu/cell in growth medium. Primer-probe set was Thermo Fisher Assay ID=AIBJZIB

HSV-1 Strain F = assay: Viral qPCR assay, HSV-1 in MRC5 cells; format: cell-based, Herpes Simplex Virus type 1; settings: read-out: HSV1 MRC5 Cell (EC50)
Method: as §1
as §1, with “gene” for “gene and of the cellular control, PPIA (Thermo Fisher Assay ID=Hs04194521_s1),”, “in” for “in separate”, “Compound effects on viral” for “Viral”, “number” for “numbers were normalized by cellular control copy number, and compound effects”
as §2

HSV2 = assay: Viral qPCR assay, HSV2 in MRC5 cells; format: cell-based, Herpes Simplex Virus type 2; settings: read-out: HSV2 MRC5 Cell (EC50)
Method: as §1
as §1, with “gene” for “gene and of the cellular control, PPIA (Thermo Fisher Assay ID=Hs04194521_s1),”, “in” for “in separate”, “Compound effects on viral” for “Viral”, “number” for “numbers were normalized by cellular control copy number, and compound effects”

[2] = Human betaherpesvirus 5, AD169, MRC5, 72 h
[3] = Human alphaherpesvirus 3, MRC5, 72 h
[4] = Human alphaherpesvirus 1, MRC5, 72 h
[5] = Human alphaherpesvirus 2, MRC5, 72 h

SMILES	IC50 [1] [nM]	EC50 (HCMV Strain AD169; MRC5 cells, ~72 hrs) [nM]	IC50 (VZV; ~72 hrs) [nM]	EC50 (HSV-1 Strain F; ~72 hrs) [nM]	EC50 (HSV2; ~72 hrs) [nM]	EC50 (HCMV Strain AD169; [2]) [nM]	IC50 (VZV; [3]) [nM]	EC50 (HSV-1 Strain F; [4]) [nM]	EC50 (HSV2; [5]) [nM]
CCC1c2c(c(C(=O)NCc3ccc(Cl)cc3)nn2C)CN1C[C@H]1CCC(=O)N1 (single isomer, unassigned) [Compound 105]	23	479	289	335	274	–	–	–	–
Cn1nc(C(=O)NCc2ccc(Cl)cc2)c2c1CN(CC13CC1CC(=O)N3)C2 (stereo not shown) [Compound 95]	127	–	–	–	–	632	4550	3300	3720
O=C1N[C@@H](CN2Cc3c(C(=O)NCc4ccc(Cl)cc4)nn(C(F)F)c3C2)CO1 [Compound 99]	5.07	–	–	–	–	60.5	53.1	79.5	43.2
CC(=O)OCC1c2c(c(C(=O)NCc3ccc(Cl)cc3)nn2C)CN1CC1CCC(=O)N1 (single isomer, unassigned) [Compound 120]	121	642	1780	2740	2020	–	–	–	–
CC([C@@H]1CCC(=O)N1)N1Cc2c(C(=O)NCc3ccc(Cl)cc3)nn(C(F)F)c2C1 (stereo partly shown) [Compound 71]	76.2	–	1210	2080	1080	–	–	–	–
CC1c2c(c(C(=O)NCc3ccc(Cl)cc3)nn2C)CN1C(C)C1CCC(=O)N1 (stereo not shown) [Compound 111]	57.9	125	402	557	248	–	–	–	–
CCC1c2c(c(C(=O)NCc3ccc(Cl)cc3)nn2C)CN1C[C@@H]1CCC(=O)N1 (single isomer, unassigned) [Compound 103]	17.4	157	104	172	63	–	–	–	–
CC1c2c(c(C(=O)NCc3ccc(Cl)cc3)nn2C)CN1C(C)C1CCC(=O)N1 (stereo not shown) [Compound 112]	105	148	263	294	233	–	–	–	–
CC(C1CC(F)C(=O)N1)N1Cc2c(C(=O)NCc3ccc(Cl)cc3)nn(C)c2C1 (stereo not shown) [Compound 74]	815	28100	–	–	–	–	–	–	–
CC(C1CC(F)(F)C(=O)N1)N1Cc2c(C(=O)NCc3ccc(Cl)cc3)nn(C)c2C1 (stereo not shown) [Compound 84]	13300	40000	–	–	–	–	–	–	–
CC(C1CC(F)(F)C(=O)N1)N1Cc2c(C(=O)NCc3ccc(Cl)cc3)nn(C)c2C1 (stereo not shown) [Compound 85]	1050	3360	–	–	–	–	–	–	–

Second part, led by results:

IC50 [1] [nM]	SMILES	EC50 (HCMV Strain AD169; MRC5 cells, ~72 hrs) [nM]	IC50 (VZV; ~72 hrs) [nM]	EC50 (HSV-1 Strain F; ~72 hrs) [nM]	EC50 (HSV2; ~72 hrs) [nM]	EC50 (HCMV Strain AD169; [2]) [nM]	IC50 (VZV; [3]) [nM]	EC50 (HSV-1 Strain F; [4]) [nM]	EC50 (HSV2; [5]) [nM]
15.2	O=C1CC[C@H](CN2Cc3c(C(=O)NCc4ccc(Cl)cc4)nn(-c4ncccn4)c3C2)N1 [Compound 28]	108	210	139	89.5	–	–	–	–
25.9	O=C1CC[C@@H](CN2Cc3c(C(=O)NCc4ccc(Cl)cc4)nn(-c4nccs4)c3C2)N1 [Compound 42]	–	–	–	–	940	1050	996	1100
31.2	CCOc1cnc(-n2nc(C(=O)NCc3ccc(Cl)cc3)c3c2CN(C[C@H]2CCC(=O)N2)C3)nc1 [Compound 16]	–	–	–	–	298	208	233	74.5
38.1	Cn1nc(C(=O)NCc2ccc(Cl)cc2)c2c1CN(C[C@@H]1CCC(=O)N1)C2 [Compound 47]	–	–	–	–	328	657	878	611
58.2	O=C1CC[C@@H](CN2Cc3c(C(=O)NCc4ccc(Cl)cc4)nn(C4CCOC4)c3C2)N1 (single isomer, unassigned) [Compound 43]	3290	–	–	–	–	2640	3550	3490
17.2	O=C1CC[C@H](CN2Cc3c(C(=O)NCc4ccc(Cl)cc4)nn(-c4ncco4)c3C2)N1 [Compound 23]	–	–	–	–	130	325	224	136
11	O=C1CC[C@H](CN2Cc3c(C(=O)NCc4ccc(Cl)cc4)nn(-c4cnsn4)c3C2)N1 [Compound 22]	313	413	231	251	–	–	–	–
90.6	Cc1cn(C)c(-n2nc(C(=O)NCc3ccc(Cl)cc3)c3c2CN(C[C@H]2CCC(=O)N2)C3)n1 [Compound 19]	–	–	–	–	399	535	650	333
9.82	O=C1CC[C@H](CN2Cc3c(C(=O)NCc4ccc(Cl)cc4)nn(-c4nccs4)c3C2)N1 [Compound 7]	–	–	–	–	142	190	118	86.6
33.8	O=C1CC[C@@H](CN2Cc3c(C(=O)NCc4ccc(Cl)cc4)nn(C4CCOC4)c3C2)N1 (single isomer, unassigned) [Compound 44]	1100	2370	2500	2950	–	–	–	–
19.2	O=C1CC[C@H](CN2Cc3c(C(=O)NCc4ccc(Cl)cc4)nn(-c4ncc(CO)s4)c3C2)N1 [Compound 9]	–	–	–	–	644	–	–	–
146	O=C1CC[C@@H](CN2Cc3c(C(=O)NCc4ccc(Cl)cc4)nn(C4CCC(F)(F)C4)c3C2)N1 (single isomer, unassigned) [Compound 54]	1580	–	–	–	–	–	–	–
148	Cn1nccc1-n1nc(C(=O)NCc2ccc(Cl)cc2)c2c1CN(C[C@H]1CCC(=O)N1)C2 [Compound 24]	–	–	–	–	997	–	–	–
13300	Cn1nc(C(=O)NCc2ccc(Cl)cc2)c2c1CN(CC1CCC(=O)N1)C2 (stereo not shown) [Compound 88]	33000	–	–	–	–	–	–	–
